The assay deals with PKC mediated IL-2 production. In words: IL-2 ELISA, human primary T cell, anti CD3+CD28+. The note with it: human primary T cells stimulated with αCD3 and αCD28, 24 hours. The class given is cell-based. In a few lines:
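Human peripheral blood T cells, pre-expanded with αCD3/αCD28 and IL-2 and then washed free of IL-2, were pre-incubated with compound for 1 h at 37° C. They were then stimulated on plates coated with […] αCD3 and 5 μg/ml αCD28, or with 0.5 ng/ml PMA plus 0.1 uM ionomycin in the counter assay. IL-2 in supernatants was measured by ELISA after 24 h.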

Each structure is given as a SMILES string. pEC50: −log10 of the molar value.

For the molecule `Cn1nnn(-c2cc(Nc3ncc(F)c(N[C@@H]4C[C@@H]5CCCN5C(C)(C)C4)n3)c(F)cc2OCCN)c1=O` [Compound 231, 1-(2-(2-aminoethoxy)-5-((4-(((7R,8aS)-5,5-dimethyloctahydroindolizin-7-yl)amino)-5-fluoropyrimidin-2-yl)amino)-4-fluorophenyl)-4-methyl-1,4-dihydro-5H-tetrazol-5-one], the pEC50 is 6.00 to 6.30. As to `Cn1nnn(-c2cc(Nc3ncc(Cl)c(N[C@@H]4C[C@@H]5CCCN5C(C)(C)C4)n3)c(F)cc2O)c1=O` [Compound 232, 1-(5-((5-chloro-4-(((7R,8aS)-5,5-dimethyloctahydroindolizin-7-yl)amino)pyrimidin-2-yl)amino)-4-fluoro-2-hydroxyphenyl)-4-methyl-1,4-dihydro-5H-tetrazol-5-one], under “Homo sapiens, T-cell, 24 h”, the negative-log EC50 (pEC50) is 6.00 to 6.30. Regarding `CO[C@@H](C)COc1cc(F)c(Nc2ncc(F)c(N[C@@H]3C[C@@H]4CCCN4C(C)(C)C3)n2)cc1-n1nnn(C)c1=O` [Compound 233, 1-(5-((4-(((7R,8aS)-5,5-dimethyloctahydroindolizin-7-yl)amino)-5-fluoropyrimidin-2-yl)amino)-4-fluoro-2-((S)-2-methoxypropoxy)phenyl)-4-methyl-1,4-dihydro-5H-tetrazol-5-one], the pEC50 (Homo sapiens, T-cell, 24 h) is 6.30 to 7.00. Consider `CO[C@@H](C)COc1cc(F)c(Nc2ncc(F)c(N(C[C@H](C)OC)[C@@H]3C[C@@H]4CCCN4C(C)(C)C3)n2)cc1-n1nnn(C)c1=O` [Compound 234, 1-(5-((4-(((7R,8aS)-5,5-dimethyloctahydroindolizin-7-yl)((S)-2-methoxypropyl)amino)-5-fluoropyrimidin-2-yl)amino)-4-fluoro-2-((S)-2-methoxypropoxy)phenyl)-4-methyl-1,4-dihydro-5H-tetrazol-5-one], for which the pEC50 (Homo sapiens, T-cell, 24 h) is under 5.00. For the setting “Homo sapiens, T-cell, 24 h”, `C[C@H](O)COc1cc(F)c(Nc2ncc(Cl)c(N[C@@H]3C[C@@H]4CCCN4C(C)(C)C3)n2)cc1-n1nnn(C)c1=O` [Compound 235, 1-(5-((5-chloro-4-(((7R,8aS)-5,5-dimethyloctahydroindolizin-7-yl)amino)pyrimidin-2-yl)amino)-4-fluoro-2-((S)-2-hydroxypropoxy)phenyl)-4-methyl-1,4-dihydro-5H-tetrazol-5-one] gave a pEC50 of over 7.00.

Turning to `CC(O)COc1cc(F)c(Nc2ncc(Cl)c(N[C@@H]3C[C@@H]4CCCN4C(C)(C)C3)n2)cc1-n1nnn(C)c1=O` (stereo partly drawn) [Compound 236, 1-(5-((5-chloro-4-(((7R,8aS)-5,5-dimethyloctahydroindolizin-7-yl)amino)pyrimidin-2-yl)amino)-4-fluoro-2-(2-hydroxypropoxy)phenyl)-4-methyl-1,4-dihydro-5H-tetrazol-5-one], the pEC50 (Homo sapiens, T-cell, 24 h) is over 7.00.

`Cn1nnn(-c2cc(Nc3ncc(Cl)c(N[C@@H]4C[C@@H]5CCCN5C(C)(C)C4)n3)c(F)cc2OCCO)c1=O` [Compound 237, 1-(5-((5-chloro-4-(((7R,8aS)-5,5-dimethyloctahydroindolizin-7-yl)amino)pyrimidin-2-yl)amino)-4-fluoro-2-(2-hydroxyethoxy)phenyl)-4-methyl-1,4-dihydro-5H-tetrazol-5-one] showed a pEC50 (Homo sapiens, T-cell, 24 h) of over 7.00. Under “Homo sapiens, T-cell, 24 h”, `CO[C@@H](C)COc1cc(F)c(Nc2ncc(Cl)c(N[C@@H]3C[C@@H]4CCCN4C(C)(C)C3)n2)cc1-n1nnn(C)c1=O` [Compound 238, 1-(5-((5-chloro-4-(((7R,8aS)-5,5-dimethyloctahydroindolizin-7-yl)amino)pyrimidin-2-yl)amino)-4-fluoro-2-((S)-2-methoxypropoxy)phenyl)-4-methyl-1,4-dihydro-5H-tetrazol-5-one] gave a pEC50 of 6.00 to 6.30. In turn, `CO[C@@H](C)COc1cc(F)c(Nc2ncc(Cl)c(N(C[C@H](C)OC)[C@@H]3C[C@@H]4CCCN4C(C)(C)C3)n2)cc1-n1nnn(C)c1=O` [Compound 239, 1-(5-((5-chloro-4-(((7R,8aS)-5,5-dimethyloctahydroindolizin-7-yl)((S)-2-methoxypropyl)amino)pyrimidin-2-yl)amino)-4-fluoro-2-((S)-2-methoxypropoxy)phenyl)-4-methyl-1,4-dihydro-5H-tetrazol-5-one] gave a pEC50 (Homo sapiens, T-cell, 24 h) of under 5.00. The molecule `Cn1nnn(-c2cc(Nc3ncc(Cl)c(N[C@@H]4C[C@@H]5CCCN5C(C)(C)C4)n3)c(F)cc2OCC(C)(C)O)c1=O` [Compound 240, 1-(5-((5-chloro-4-(((7R,8aS)-5,5-dimethyloctahydroindolizin-7-yl)amino)pyrimidin-2-yl)amino)-4-fluoro-2-(2-hydroxy-2-methylpropoxy)phenyl)-4-methyl-1,4-dihydro-5H-tetrazol-5-one] had a negative-log EC50 (pEC50) (Homo sapiens, T-cell, 24 h) of over 7.00. Take `COc1cc(Nc2ncc(F)c(N[C@@H]3C[C@@H]4CCCN4C(C)(C)C3)n2)c(F)c(-n2nnnc2C)c1` [Compound 241, 5-fluoro-N2-(2-fluoro-5-methoxy-3-(5-methyl-1H-tetrazol-1-yl)phenyl)-N4-((7R,8aS)-octahydro-5,5-dimethylindolizin-7-yl)pyrimidine-2,4-diamine]: under “Homo sapiens, T-cell, 24 h”, the pEC50 is 6.30 to 7.00. Under “Homo sapiens, T-cell, 24 h”, `COc1cc(-n2nnnc2C)cc(Nc2ncc(F)c(N[C@@H]3C[C@@H]4CCCN4C(C)(C)C3)n2)c1F` [Compound 242, 5-fluoro-N2-(2-fluoro-3-methoxy-5-(5-methyl-1H-tetrazol-1-yl)phenyl)-N4-((7R,8aS)-octahydro-5,5-dimethylindolizin-7-yl)pyrimidine-2,4-diamine] gave a pEC50 of over 7.00.

On to `COc1cc(-n2nnnc2C)c(F)c(Nc2ncc(F)c(N[C@@H]3C[C@@H]4CCCN4C(C)(C)C3)n2)c1F` [Compound 243, 5-fluoro-N2-(2,6-difluoro-3-methoxy-5-(5-methyl-1H-tetrazol-1-yl)phenyl)-N4-((7R,8aS)-octahydro-5,5-dimethylindolizin-7-yl)pyrimidine-2,4-diamine], for which the pEC50 (Homo sapiens, T-cell, 24 h) was 6.00 to 6.30. Same read-out and setting: under `Cn1nc2n(c1=O)-c1cc(Nc3ncc(F)c(N[C@@H]4C[C@@H]5CCCN5C(C)(C)C4)n3)ccc1OC2(C)C` [Compound 248, 5-fluoro-N2-(1H-2,4-dihydron-2,4,4-trimethyl-[1,2,4]triazolo[3,4-c][1,4]benzoxazin-1-one-8-yl)-N4-((7R,8aS)-octahydro-5,5-dimethylindolizin-7-yl)pyrimidine-2,4-diamine] stands 6.30 to 7.00. In the case of `Cc1nnnn1-c1cc(Nc2ncc(F)c(N[C@@H]3C[C@@H]4CCCN4C(C)(C)C3)n2)c(F)cc1OC1COC1` [Compound 249, 5-fluoro-N2-(2-fluoro-5-(5-methyl-1H-tetrazol-1-yl)-4-(oxetan-3-yloxy)phenyl)-N4-((7R,8aS)-octahydro-5,5-dimethylindolizin-7-yl)pyrimidine-2,4-diamine], the pEC50 (Homo sapiens, T-cell, 24 h) was over 7.00.

Molecule `CC1(C)Oc2ccc(Nc3ncc(F)c(N[C@@H]4C[C@@H]5CCCN5C(C)(C)C4)n3)cc2-n2c1nn(C(CO)CCl)c2=O` (stereo partly drawn) [Compound 250, 5-fluoro-N2-(1H-2,4-dihydron-4,4-dimethyl-2-(3-chloropropanol-2-yl)[1,2,4]triazolo[3,4-c][1,4]benzoxazin-1-one-8-yl)-N4-((7R,8aS)-octahydro-5,5-dimethylindolizin-7-yl)pyrimidine-2,4-diamine] had a pEC50 (Homo sapiens, T-cell, 24 h) of 5.00 to 6.00. `CC1(C)Oc2ccc(Nc3ncc(F)c(N[C@@H]4C[C@@H]5CCCN5C(C)(C)C4)n3)cc2-n2c1nn(C1COC1)c2=O` [Compound 251, 5-fluoro-N2-(1H-2,4-dihydron-4,4-dimethyl-2-(oxetan-3-yl)[1,2,4]triazolo[3,4-c][1,4]benzoxazin-1-one-8-yl)-N4-((7R,8aS)-octahydro-5,5-dimethylindolizin-7-yl)pyrimidine-2,4-diamine] showed a pEC50 (Homo sapiens, T-cell, 24 h) of 5.00 to 6.00.

The values above are taken from patent US9682976B2, “Protein kinase C inhibitors and uses thereof” (Rigel Pharmaceuticals, Inc., priority 2012, dated 2017).
